# Measurements taken from patent publication US20140037606A1, “CELL-BASED, ANTI-CANCER VACCINES” (priority 2012, published 2014).
# Tests used:
# bone marrow-derived DCs [1] = assay: Costimulatory molecule expression on DCs by FACS; format: cell-based, mouse
# Description: (§1) FIG. 1. Inhibition of mTOR expression prolongs DC lifespan and promotes expression of costimulatory molecules CD40 and CD86. (A) DCs were pulsed with Pam2CSK4, LPS, R848, or CpG for 6 hours and then washed and cultured in complete medium. Cell viability was monitored daily by FACS analysis of 7-AAD staining of CD11c^+ cells. (B) Western blot for mTOR and β-actin protein in Luciferase hpRNA (Luc^hp) or mTOR hpRNA (mTOR^hp)-transduced DCs. (C) DCs were stimulated with media alone, LPS, or rapamycin+LPS for 30 minutes. Cells were subsequently fixed and stained for phosphorylated S6 protein as a molecular readout for mTOR activation and analyzed by FACS. (D) Luc^hp and mTOR^hp-transduced DCs were left untreated or stimulated with LPS and monitored daily for cell viability by analysis of 7-AAD staining of CD11c^+ cells. (E) Luc^hp or mTOR^hp DCs were cultured with or without LPS for 24 hours and analyzed by FACS for CD40 and CD86 expression. […]
# (§2) FIG. 2. […] Cells were monitored daily for cell viability as described for FIG. 1. […] (B) DCs were unstimulated or stimulated with LPS, RAP+LPS, or KU+LPS and analyzed by FACS 24 hours later for CD40 and CD86 expression. […] (C) DCs were treated as in (B) and analyzed daily by FACS for CD40 and CD86 expression gated on live CD11c^+ cells. […]
# human myeloid DCs = assay: Costimulatory molecule expression in human myeloid DCs by FACS; format: cell-based; conditions: R848 1 μg/mL, inhibitors 100 nM
# Description: FIG. 3. Pharmacological inhibition of mTOR augments the duration of costimulatory molecule expression in human myeloid DCs. (A) Human myeloid DCs were either unstimulated or stimulated with R848 in the presence or absence of rapamycin (RAP) or KU. CD40 and CD86 expression was analyzed by FACS. Day 4 costimulatory molecule expression from a representative donor (5430) is depicted. (B) DCs were treated as in (A) and analyzed daily by FACS for CD40 and CD86 expression. (C) DCs were treated as in (A) and analyzed for viability at indicated times by FACS analysis of 7-AAD staining. For each treatment, data from 4-6 individual donors is depicted.
# Human DC Culture: Human myeloid DCs were isolated from human blood using MACS positive selection beads. In brief, filters from hospital blood donors were generously donated by the CVPH Medical Center in Plattsburgh, N.Y. Blood cells were obtained by reverse flushing filters in sterile HBSS. PBMCs were obtained by centrifugation of blood samples over Ficoll-Paque Plus (density 1.077 g/mL) (GE Healthcare). Myeloid DCs were enriched using the BDCA-1 Positive Selection DC Islation Kit (Miltenyi Bioscience) per the manufacturer's instructions. […] At indicated times, DCs were harvested and analyzed by FACS for maturation markers.
# bone marrow-derived DCs [2] = assay: DC viability/lifespan by FACS of 7-AAD staining of CD11c+ cells; format: cell-based, mouse; conditions: treatment alone, no LPS; data not shown
# Description: as §1, §2
# [3] = system: mTORC2-mediated Akt phosphorylation; assay: Activation-induced Akt Ser473 phosphorylation in DCs; format: cell-based, mouse
smiles,measurement,setting,value
"COc1ccc(-c2ccc3c(N4CCOCC4)nc(N4C[C@@H](C)O[C@@H](C)C4)nc3n2)cc1CO [KU, KU 0063794]",duration of expression of CD40 and CD86 in response to LPS,"bone marrow-derived DCs [1]; analyzed daily, live CD11c+ cells",prolonged
same,percentage of DCs expressing CD40 and CD86,"bone marrow-derived DCs [1]; during LPS stimulation, 24 hours, inhibitors 100 nM",increase
same,"costimulatory molecule expression (CD40, CD86) in response to R848",human myeloid DCs,enhanced
same,viability of unstimulated DCs,bone marrow-derived DCs [2],did not impact
same,activation induced Akt Ser473 phosphorylation,[3],inhibited
